Test results from PMC8151276, “An Integrated Approach toward NanoBRET Tracers for Analysis of GPCR Ligand Engagement” (Molecules, 2021).

Target: T1, HTR6 (Homo sapiens, UniProt P50406)
T1 construct: purchased Promega (in-house HiBiT-GPCR construct library, NanoBRET)
Experiment: NanoBRET screen HiBiT-HTR6 in HEK293
Assay type: binding
Procedure: Each tracer candidate was screened across the entire library of HiBiT-GPCR constructs using NanoBRET as the detection modality. As depicted in Figure 4A, the specificity of interactions was evaluated through decrease in BRET due to competitive displacement of a bound tracer by excess parental compound. Each tracer was analyzed for binding to each HiBiT-GPCR fusion in the absence and in the presence of competing parental compound. Briefly, HEK293 cells were transfected with HiBiT-GPCR constructs diluted into promoterless DNA to reduce expression and maximize translocation to the cell surface. Each tracer candidate was then screened at concentrations of 1 μM and 0.1 μM across cells expressing these fusions. Cells were treated for 1.5 h with tracer either alone or in the presence of 20 μM competing parental compound (i.e., control). BRET was measured upon addition of purified LgBiT and subsequent complementation with HiBiT genetically fused to a GPCR. The specificity of interactions was assessed through a decrease in BRET signal due to competitive displacement of the bound tracer. To further gauge the robustness of these interactions, the fold response over the control (i.e., BRETtracer/BRETcontrol) was calculated. We chose a 1.5-fold response, which translates to ≥7-fold signal over noise as the minimal threshold required to score an interaction as positive.
HiBiT-GPCR DNA constructs were diluted in 10 mM Tris pH 8 to a final concentration of 0.01 μg/μL, arrayed in 96-well plates and stored at −20 °C. For transfection, HEK293 cells were suspended in Opti-MEM (without phenol red) supplemented with 2% fetal bovine serum (Seradigm) and 100 units/mL penicillin–streptomycin (Gibco) at a final concentration of 220,000 cells/mL and dispensed into white 96-well plates at 90 μL/well. Subsequent transfections and screens were carried using an Agilent Bravo Automated Liquid Handling Platform. First, the 96-well HiBiT DNA arrays were diluted 25-fold in Opti-MEM (without serum or phenol red) to a final concentration of 0.0004 μg/μL and 20 μL of the diluted DNAs were transferred into new 96-well plates. Next, promoterless carrier DNA (1 μg/μL) was diluted 25-fold (0.04 μg/μL) and then dispensed into the diluted arrays at 20 μL/well. Following brief mixing, Viafect transfection reagent (Promega) diluted 16-fold into Opti-MEM was dispensed into the plates at 40 μL/well. After mixing by pipetting, plates were incubated for 10 min on the pipetting station deck. The DNA-transfection reagent complexes were then added to plates containing cells. To facilitate the screen, 10 μL of DNA-transfection reagent complexes were added in duplicates to the top 4 and bottom 4 rows, resulting in two identical 48-well arrays per plate. Plates with transfected cells were incubated for 18–20 h at 37 °C/5% CO2. A screen of each tracer across the entire library using two different concentrations requires duplicate plates of transfected cells. Depending on the number of tracers being screened, transfections can be scaled up using the same ratios. The next day, for each tracer, four 20× screening solutions in tracer dilution buffer (Promega) were prepared: two duplicates at final concentration of 20 μM and two duplicates at a final concentration of 2 μM. […] The four resulting solutions were diluted 4-fold in Opti-MEM without serum or phenol red to generate 5× solutions (5 µM and 0.5 µM tracer +/− 100 μM competing compound). To screen the library, a BioTek MultiFlo FX liquid dispenser was used to dispense 22.5 µL of tracer solution to the top 4 rows and 22.5 µL tracer + competing compound solution to the 4 bottom rows. Plates were briefly mixed on an orbital shaker and incubated for 1.5 h at room temperature. […] Plates were briefly mixed on an orbital shaker and incubated for 15 min to allow complementation.

T1 sequence (P50406 whole entry): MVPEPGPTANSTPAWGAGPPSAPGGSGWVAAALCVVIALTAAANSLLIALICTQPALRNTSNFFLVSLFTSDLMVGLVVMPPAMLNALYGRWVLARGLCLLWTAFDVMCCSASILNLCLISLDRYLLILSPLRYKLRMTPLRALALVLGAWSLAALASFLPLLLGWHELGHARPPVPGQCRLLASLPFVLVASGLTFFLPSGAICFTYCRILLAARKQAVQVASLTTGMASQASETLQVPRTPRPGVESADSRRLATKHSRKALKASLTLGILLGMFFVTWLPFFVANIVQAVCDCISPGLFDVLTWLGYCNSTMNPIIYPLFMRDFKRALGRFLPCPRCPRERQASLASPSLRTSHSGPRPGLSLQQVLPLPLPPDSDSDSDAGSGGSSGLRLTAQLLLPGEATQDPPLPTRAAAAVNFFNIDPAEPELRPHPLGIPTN

Row | SMILES | NanoBRET Fold Response (HTR6, tracer 0.1μM) | NanoBRET Fold Response (HTR6, tracer 1μM) | other results
1 | Cc1nc2n(c(=O)c1CCN1CCC(c3noc4cc(F)ccc34)CC1)CCCC2OC(=O)NCCOCCOCCOCCOCCNC(=O)CCc1ccc2n1[B-](F)(F)[N+]1=C(c3ccc[nH]3)C=CC1=C2 (stereo not drawn) [Risperidone-2-NB590] | 1.00 | 1.34 | 
2 | CCOC(=O)c1cc(C#N)c(N2CCC(C(=O)NS(=O)(=O)Cc3ccccc3/C=C/C(=O)NCCNC(=O)CCc3ccc4n3[B-](F)(F)[N+]3=C(c5ccc[nH]5)C=CC3=C4)CC2)nc1C [AZD1283-1-NB590] |  |  | NanoBRET Fold Response (HTR6, 0.1μM): 1.05; NanoBRET Fold Response (HTR6, 1μM): 1.07
3 | Cc1cc2c(s1)Nc1ccccc1N=C2N1CCN(CCCNC(=O)CCOCCOCCOCCOCCNC(=O)CCc2ccc3n2[B-](F)(F)[N+]2=C(c4ccc[nH]4)C=CC2=C3)CC1 [Olanzapine-a-2-NB590] | 1.09 | 1.15 | 
4 | COc1ccccc1N1CCN(CCCCN2C(=O)c3ccc(CNC(=O)CCOCCNC(=O)c4ccc(CNC(=O)CCc5ccc6n5[B-](F)(F)[N+]5=C(c7ccc[nH]7)C=CC5=C6)cc4)cc3C2=O)CC1 [NAN-190-3-NB590] | 0.94 | 1.19 | 
5 | CC(C)N(CC[C@H](c1ccccc1)c1cc(CCNC(=O)CCOCCOCCOCCOCCNC(=O)CCc2ccc3n2[B-](F)(F)[N+]2=C(c4ccc[nH]4)C=CC2=C3)ccc1O)C(C)C [Tolterodine-2-NB590] | 0.89 | 0.96 | 
6 | CN(C)CCC=C1c2ccccc2CCc2ccc(C(=O)NCCNC(=O)CCOCCOCCOCCOCCNC(=O)CCc3ccc4n3[B-](F)(F)[N+]3=C(c5ccc[nH]5)C=CC3=C4)cc21 [Amitriptyline-b-2-NB590] |  |  | NanoBRET Fold Response (tracer at 0.1μM, listed as amitriptyline-b-2-NB590): 1.11; NanoBRET Fold Response (tracer at 1μM, listed as amitriptyline-b-2-NB590): 1.11
7 | O=C(CCOCCOCCOCCOCCNC(=O)CCc1ccc2n1[B-](F)(F)[N+]1=C(c3ccc[nH]3)C=CC1=C2)NCCCN1CCN(C2=Nc3ccccc3Oc3ccc(Cl)cc32)CC1 [Loxapine-a-2-NB590] | 1.04 | 1.21 | 
8 | CN(C)CCC=C1c2ccccc2CCc2ccc(C(=O)NCCNC(=O)CCOCCOCCOCCOCCNC(=O)CCc3ccc4n3[B-](F)(F)[N+]3=C(c5ccc[nH]5)C=CC3=C4)cc21 [Amitriptyline-a-2-NB590] |  |  | NanoBRET Fold Response (tracer at 0.1μM): 0.98; NanoBRET Fold Response (tracer at 1μM): 0.97
9 | O=C(CCc1ccc2n1[B-](F)(F)[N+]1=C(c3ccc[nH]3)C=CC1=C2)NCCOCCOCCNC(=O)OCCOCCN1CCN(C2=Nc3ccccc3Sc3ccccc32)CC1 [Quetiapine-a-2-NB590] | 0.90 | 0.98 | 
10 | COc1ccccc1N1CCN(CCCCN2C(=O)c3ccc(CNC(=O)CCOCCOCCOCCOCCNC(=O)CCc4ccc5n4[B-](F)(F)[N+]4=C(c6ccc[nH]6)C=CC4=C5)cc3C2=O)CC1 [NAN-190-2-NB590] | 0.99 | 1.04 | 
11 | N#CN/C(=N\CCNC(=O)c1ccc(N)cc1)NCCCOc1cccc(CN2CCCCC2)c1 [Aminopotentidine (unmodified)] |  |  | NanoBRET Fold Response (HTR6, other tracers/Aminopotentidine (unmodified), 0.1μM): 1.03; NanoBRET Fold Response (HTR6, other tracers/Aminopotentidine (unmodified), 1μM): 1.38
12 | COc1ccc2[nH]c(-c3ccc(CNC(=O)CCOCCOCCOCCOCCNC(=O)CCc4ccc5n4[B-](F)(F)[N+]4=C(c6ccc[nH]6)C=CC4=C5)cc3)c(CCNC(C)=O)c2n1 [AzomelatoninICO9-2-NB590] |  |  | NanoBRET Fold Response (0.1μM tracer): 0.97; NanoBRET Fold Response (1μM tracer): 0.95
13 | O=C(CCOCCOCCOCCOCCNC(=O)CCc1ccc2n1[B-](F)(F)[N+]1=C(c3ccc[nH]3)C=CC1=C2)NCCCN1CCN(C2=Nc3cc(Cl)ccc3Nc3ccccc32)CC1 [Clozapine-a-2-NB590] |  |  | NanoBRET Fold Response (HTR6, 0.1μM tracer): 1.49; NanoBRET Fold Response (HTR6, 1μM tracer): 2.05
14 | CCCn1c(=O)c2[nH]c(-c3ccc(OCC(=O)NCCNC(=O)CCOCCNC(=O)c4ccc(CNC(=O)CCc5ccc6n5[B-](F)(F)[N+]5=C(c7ccc[nH]7)C=CC5=C6)cc4)cc3)nc2n(CCC)c1=O [XAC-3-NB590] | 0.97 | 0.93 | 
15 | O=C(CCc1ccc2n1[B-](F)(F)[N+]1=C(c3ccc[nH]3)C=CC1=C2)NCc1ccc(C(=O)NCCOCCOCCNCC(O)COc2cccc3ccccc23)cc1 (stereo not drawn) [Propranolol-3-NB590] |  |  | NanoBRET Fold Response (HTR6, 0.1μM): 1.10; NanoBRET Fold Response (HTR6, 1μM): 1.14
16 | O=C(CCc1ccc2n1[B-](F)(F)[N+]1=C(c3ccc[nH]3)C=CC1=C2)NCc1ccc(C(=O)NCCOCCC(=O)N[C@@H]2CC[C@@]3(O)[C@H]4Cc5ccc(O)c6c5[C@@]3(CCN4CC3CC3)[C@H]2O6)cc1 [Naltrexone-3-NB590] | 0.77 | 0.95 | 
17 | CN(CCC=C1c2ccccc2CCc2ccccc21)C(=O)CCOCCOCCOCCOCCNC(=O)CCc1ccc2n1[B-](F)(F)[N+]1=C(c3ccc[nH]3)C=CC1=C2 [Amitriptyline-e-2-NB590] |  |  | NanoBRET Fold Response (tracer at 1μM): 1.01
18 | N#CN=C(NCCCOc1cccc(CN2CCCCC2)c1)NCCNC(=O)CCOCCOCCOCCOCCNC(=O)CCc1ccc2n1[B-](F)(F)[N+]1=C(c3ccc[nH]3)C=CC1=C2 [Aminopotentidine-2-NB590] | 0.99 | 1.03 | 
19 | COc1ccc2c(n1)c(CCNC(C)=O)cn2CCNC(=O)CCc1ccc2n1[B-](F)(F)[N+]1=C(c3ccc[nH]3)C=CC1=C2 [Azamelatonin-1-NB590] |  |  | NanoBRET Fold Response (0.1μM tracer): 0.87; NanoBRET Fold Response (1μM tracer): 0.87
20 | CC(C)N(CC[C@H](c1ccccc1)c1cc(CCNC(=O)c2ccc(CNC(=O)CCc3ccc4n3[B-](F)(F)[N+]3=C(c5ccc[nH]5)C=CC3=C4)cc2)ccc1O)C(C)C [Tolterodine-BZ-NB590] | 0.96 | 1.05 | 
